In ChEMBL document CHEMBL3045481, “Insecticide-induced resurgence of the whitebacked planthopper Sogatella furcifera (Horvath) (Hemiptera: Delphacidae) on rice varieties with different levels of resistance” (Crop Prot, 2011):

Experiments:
Type in all cases: ADME, organism-based
Settings in all cases: in vivo
Oryza sativa [1] = experiment: Effect on total sugar level in Sogatella furcifera-resistanct Oryza sativa (rice) plant PR116 leaf sheath measured per gram of dry weight at 0.0018% concentration (reference value: 30.27 mg/g dry wt)
Oryza sativa [2] = experiment: Effect on total sugar level in Sogatella furcifera-resistanct Oryza sativa (rice) plant PR116 leaf sheath measured per gram of dry weight at 0.0035% concentration (reference value: 30.27 mg/g dry wt)
Oryza sativa [3] = experiment: Effect on total phenols level in Sogatella furcifera-resistanct Oryza sativa (rice) plant PR116 leaf sheath measured per gram of dry weight at 0.0018% concentration (reference value: 5.75 mg/g dry wt)
Oryza sativa [4] = experiment: Effect on total phenols level in Sogatella furcifera-resistanct Oryza sativa (rice) plant PR116 leaf sheath measured per gram of dry weight at 0.0035% concentration (reference value: 5.75 mg/g dry wt)
Oryza sativa [5] = experiment: Effect on total amino acids level in Sogatella furcifera-resistanct Oryza sativa (rice) plant PR116 leaf blade measured per gram of dry weight at 0.0018% concentration (reference value: 3.91 mg/g […])
Oryza sativa [6] = experiment: Effect on total amino acids level in Sogatella furcifera-resistanct Oryza sativa (rice) plant PR116 leaf blade measured per gram of dry weight at 0.0035% concentration (reference value: 3.91 mg/g […])
Oryza sativa [7] = experiment: Effect on total amino acids level in Sogatella furcifera-sensitive Oryza sativa (rice) plant ARC6248 leaf sheath measured per gram of dry weight at 0.0018% concentration (reference value: 2.11 mg/g fresh wt)
Oryza sativa [8] = experiment: Effect on total amino acids level in Sogatella furcifera-sensitive Oryza sativa (rice) plant ARC6248 leaf sheath measured per gram of dry weight at 0.0035% concentration (reference value: 2.11 mg/g fresh wt)
Oryza sativa [9] = experiment: Effect on total amino acids level in Sogatella furcifera-sensitive Oryza sativa (rice) plant ARC6248 leaf blade measured per gram of dry weight at 0.0018% concentration (reference value: 3.54 mg/g fresh wt)
Oryza sativa [10] = experiment: Effect on total amino acids level in Sogatella furcifera-sensitive Oryza sativa (rice) plant ARC6248 leaf blade measured per gram of dry weight at 0.0035% concentration (reference value: 3.54 mg/g fresh wt)
Oryza sativa [11] = experiment: Effect on total protein level in Sogatella furcifera-sensitive Oryza sativa (rice) plant ARC6248 leaf blade measured per gram of dry weight at 0.0018% concentration (reference value: 17.67 mg/g fresh wt)
Oryza sativa [12] = experiment: Effect on total protein level in Sogatella furcifera-sensitive Oryza sativa (rice) plant ARC6248 leaf blade measured per gram of dry weight at 0.0035% concentration (reference value: 17.67 mg/g fresh wt)
Oryza sativa [13] = experiment: Effect on total protein level in Sogatella furcifera-resistanct Oryza sativa (rice) plant PR116 leaf blade measured per gram of dry weight at 0.0018% concentration (reference value: 21.67 mg/g fresh wt)
Oryza sativa [14] = experiment: Effect on total protein level in Sogatella furcifera-resistanct Oryza sativa (rice) plant PR116 leaf blade measured per gram of dry weight at 0.0035% concentration (reference value: 21.67 mg/g fresh wt)
Oryza sativa [15] = experiment: Effect on reducing sugar level in Sogatella furcifera-sensitive Oryza sativa (rice) plant ARC6248 leaf blade measured per gram of dry weight at 0.0018% concentration (reference value: 8.37 mg/g dry wt)
Oryza sativa [16] = experiment: Effect on reducing sugar level in Sogatella furcifera-sensitive Oryza sativa (rice) plant ARC6248 leaf blade measured per gram of dry weight at 0.0035% concentration (reference value: 8.37 mg/g dry wt)
Oryza sativa [17] = experiment: Effect on total amino acids level in Sogatella furcifera-resistanct Oryza sativa (rice) plant PR116 leaf sheath measured per gram of dry weight at 0.0018% concentration (reference value: 2.58 mg/g […])
Oryza sativa [18] = experiment: Effect on total amino acids level in Sogatella furcifera-resistanct Oryza sativa (rice) plant PR116 leaf sheath measured per gram of dry weight at 0.0035% concentration (reference value: 2.58 mg/g […])
Oryza sativa [19] = experiment: Effect on total phenols level in Sogatella furcifera-sensitive Oryza sativa (rice) plant ARC6248 leaf blade measured per gram of dry weight at 0.0018% concentration (reference value: 17.08 mg/g dry wt)
Oryza sativa [20] = experiment: Effect on total phenols level in Sogatella furcifera-sensitive Oryza sativa (rice) plant ARC6248 leaf blade measured per gram of dry weight at 0.0035% concentration (reference value: 17.08 mg/g dry wt)
Oryza sativa [21] = experiment: Effect on total phenols level in Sogatella furcifera-resistanct Oryza sativa (rice) plant PR116 leaf blade measured per gram of dry weight at 0.0018% concentration (reference value: 8.08 mg/g dry wt)
Oryza sativa [22] = experiment: Effect on total phenols level in Sogatella furcifera-resistanct Oryza sativa (rice) plant PR116 leaf blade measured per gram of dry weight at 0.0035% concentration (reference value: 8.08 mg/g dry wt)
Oryza sativa [23] = experiment: Effect on reducing sugar level in Sogatella furcifera-resistanct Oryza sativa (rice) plant PR116 leaf blade measured per gram of dry weight at 0.0018% concentration (reference value: 9.35 mg/g dry wt)
Oryza sativa [24] = experiment: Effect on reducing sugar level in Sogatella furcifera-resistanct Oryza sativa (rice) plant PR116 leaf blade measured per gram of dry weight at 0.0035% concentration (reference value: 9.35 mg/g dry wt)
Oryza sativa [25] = experiment: Effect on total sugar level in Sogatella furcifera-sensitive Oryza sativa (rice) plant ARC6248 leaf blade measured per gram of dry weight at 0.0018% concentration (reference value: 34.05 mg/g dry wt)
Oryza sativa [26] = experiment: Effect on total sugar level in Sogatella furcifera-sensitive Oryza sativa (rice) plant ARC6248 leaf blade measured per gram of dry weight at 0.0035% concentration (reference value: 34.05 mg/g dry wt)
Oryza sativa [27] = experiment: Effect on total sugar level in Sogatella furcifera-resistanct Oryza sativa (rice) plant PR116 leaf blade measured per gram of dry weight at 0.0018% concentration (reference value: 36.16 mg/g dry wt)
Oryza sativa [28] = experiment: Effect on total sugar level in Sogatella furcifera-resistanct Oryza sativa (rice) plant PR116 leaf blade measured per gram of dry weight at 0.0035% concentration (reference value: 36.16 mg/g dry wt)
Oryza sativa [29] = experiment: Effect on total protein level in Sogatella furcifera-sensitive Oryza sativa (rice) plant ARC6248 leaf sheath measured per gram of dry weight at 0.0018% concentration (reference value: 6.11 mg/g […])
Oryza sativa [30] = experiment: Effect on total protein level in Sogatella furcifera-sensitive Oryza sativa (rice) plant ARC6248 leaf sheath measured per gram of dry weight at 0.0035% concentration (reference value: 6.11 mg/g […])
Oryza sativa [31] = experiment: Effect on total protein level in Sogatella furcifera-resistanct Oryza sativa (rice) plant PR116 leaf sheath measured per gram of dry weight at 0.0018% concentration (reference value: 7.06 mg/g fresh wt)
Oryza sativa [32] = experiment: Effect on total protein level in Sogatella furcifera-resistanct Oryza sativa (rice) plant PR116 leaf sheath measured per gram of dry weight at 0.0035% concentration (reference value: 7.06 mg/g fresh wt)
Oryza sativa [33] = experiment: Effect on total phenols level in Sogatella furcifera-sensitive Oryza sativa (rice) plant ARC6248 leaf sheath measured per gram of dry weight at 0.0018% concentration (reference value: 12.75 mg/g dry wt)
Oryza sativa [34] = experiment: Effect on total phenols level in Sogatella furcifera-sensitive Oryza sativa (rice) plant ARC6248 leaf sheath measured per gram of dry weight at 0.0035% concentration (reference value: 12.75 mg/g dry wt)
Oryza sativa [35] = experiment: Effect on reducing sugar level in Sogatella furcifera-sensitive Oryza sativa (rice) plant ARC6248 leaf sheath measured per gram of dry weight at 0.0018% concentration (reference value: 6.41 mg/g dry wt)
Oryza sativa [36] = experiment: Effect on reducing sugar level in Sogatella furcifera-sensitive Oryza sativa (rice) plant ARC6248 leaf sheath measured per gram of dry weight at 0.0035% concentration (reference value: 6.41 mg/g dry wt)
Oryza sativa [37] = experiment: Effect on reducing sugar level in Sogatella furcifera-resistanct Oryza sativa (rice) plant PR116 leaf sheath measured per gram of dry weight at 0.0018% concentration (reference value: 7.50 mg/g dry wt)
Oryza sativa [38] = experiment: Effect on reducing sugar level in Sogatella furcifera-resistanct Oryza sativa (rice) plant PR116 leaf sheath measured per gram of dry weight at 0.0035% concentration (reference value: 7.50 mg/g dry wt)
Oryza sativa [39] = experiment: Effect on total sugar level in Sogatella furcifera-sensitive Oryza sativa (rice) plant ARC6248 leaf sheath measured per gram of dry weight at 0.0018% concentration (reference value: 25.98 mg/g dry wt)
Oryza sativa [40] = experiment: Effect on total sugar level in Sogatella furcifera-sensitive Oryza sativa (rice) plant ARC6248 leaf sheath measured per gram of dry weight at 0.0035% concentration (reference value: 25.98 mg/g dry wt)

O=[N+]([O-])NC1=NCCN1Cc1ccc(Cl)nc1 [IMIDACLOPRID]
Activity (Oryza sativa [1]): 31.34 mg | Activity (Oryza sativa [2]): 32.41 mg | Activity (Oryza sativa [3]): 6.17 mg | Activity (Oryza sativa [4]): 6.67 mg | Activity (Oryza sativa [5]): 3.73 mg | Activity (Oryza sativa [6]): 4.27 mg | Activity (Oryza sativa [7]): 2.02 mg | Activity (Oryza sativa [8]): 2.48 mg | Activity (Oryza sativa [9]): 3.21 mg | Activity (Oryza sativa [10]): 3.73 mg | Activity (Oryza sativa [11]): 15.11 mg | Activity (Oryza sativa [12]): 17.78 mg | Activity (Oryza sativa [13]): 18.89 mg | Activity (Oryza sativa [14]): 21.11 mg | Activity (Oryza sativa [15]): 9.67 mg | Activity (Oryza sativa [16]): 8.8 mg | Activity (Oryza sativa [17]): 2.4 mg | Activity (Oryza sativa [18]): 2.68 mg | Activity (Oryza sativa [19]): 17.67 mg | Activity (Oryza sativa [20]): 18 mg | Activity (Oryza sativa [21]): 8.08 mg | Activity (Oryza sativa [22]): 8 mg | Activity (Oryza sativa [23]): 12.72 mg | Activity (Oryza sativa [24]): 11.85 mg | Activity (Oryza sativa [25]): 40.45 mg | Activity (Oryza sativa [26]): 37 mg | Activity (Oryza sativa [27]): 40.98 mg | Activity (Oryza sativa [28]): 39.91 mg | Activity (Oryza sativa [29]): 5.56 mg | Activity (Oryza sativa [30]): 5.56 mg | Activity (Oryza sativa [31]): 6.06 mg | Activity (Oryza sativa [32]): 6.67 mg | Activity (Oryza sativa [33]): 14.75 mg | Activity (Oryza sativa [34]): 14.08 mg | Activity (Oryza sativa [35]): 7.28 mg | Activity (Oryza sativa [36]): 6.63 mg | Activity (Oryza sativa [37]): 8.8 mg | Activity (Oryza sativa [38]): 8.81 mg | Activity (Oryza sativa [39]): 34.55 mg | Activity (Oryza sativa [40]): 30.27 mg
